Results taken from patent US20060276498A1 (Wyeth, priority 2005, published 2006).
pIC50: −log10 of the molar value. Where a name gives a salt, the structure may show the parent alone.

Molecular target: T1, human Cot/Tpl2 kinase (Homo sapiens, UniProt P41279)
T1 construct: human Cot/Tpl2 kinase construct encoding residues 30-398; 6His (N); made in house; host or cells: Sf9 insect cells (baculovirus system, BD Biosciences)
Test: Tpl2/Cot kinase assay, GST-MEK1 phosphorylation detected by ELISA (DELFIA Eu)
Format: biochemical
Settings: Table 1; 0.4 nM Tpl2, 35 nM GST-MEK1, 50 uM ATP, 1 h at 30° C.
Description: Sf9 cells expressing the kinase were lysed in 50 mM NaPhosphate pH=8; 300 mM NaCl; 5 mM imidazole; 0.1 mM EGTA; 25 mM beta-glycerophosphate; 1% TX-100, 1% glycerol; 6 mM beta-mercaptoethanol and protease inhibitors. The lysate was clarified by centrifugation and was loaded onto a Ni-Sepharose column. The column was washed with 50 mM NaPhosphate pH=8; 300 mM NaCl; 15 mM imidazole; 1% glycerol; and 6 mM beta-mercaptoethanol. His-Tpl2 was eluted with 50 mM NaPhosphate pH=8; 300 mM NaCl; 250 mM imidazole; 1% glycerol; and 6 mM beta-mercaptoethanol. The eluted protein was further purified by size exclusion chromatography. Fractions corresponding to monomeric Tpl2 were then used in the assay.
Tpl2/Cot activity was directly assayed using GST-MEK1 as a substrate. GST-MEK1 phosphorylation on serine residues 217 and 221 was detected by ELISA. 0.4 nM Tpl2 was incubated with 35 nM GST-MEK1 in a kinase reaction buffer containing 20 mM MOPS pH=7.2; 50 uM ATP; 20 mM MgCl2; 1 mM DTT; 25 mM β-glycerophosphate; 5 mM EGTA; and 1 mM sodium orthovanadate for 1 h at 30° C. The compounds of the inventions solubilized in 100% DMSO were pre-diluted in assay buffer so that the final concentration of DMSO in the reaction was 1%. The kinase reaction was carried out in 100 ul volume on 96 well plates. The kinase reaction was then stopped with the addition of 100 mM EDTA. […] After a 1 hour incubation at room temperature, the detection plate was washed 4 times with TBST (TBS+0.05% Tween 20) and then incubated for another hour at room temperature with anti phospho-MEK1 antibody (Cell Signaling) 1:1000 in 10 mM MOPS 7.5; 150 mM NaCl; 0.05% Tween 20; 0.1% Gelatin; 0.02% NaN3; and 1% BSA. The detection plate was washed again and incubated for 30 min with DELFIA Europium (Eu) labeled goat anti-rabbit IgG (Perkin-Elmer), 1:4000 in the same buffer used for the primary incubation. After a final wash, Eu detection solution was added to each well and the Eu signal was measured in a Wallac Victor^2 Multilabel Counter. IC50 calculations were preformed using the XLfit software package (IDBS, Guildford, UK).

T1 sequence (P41279 30-398): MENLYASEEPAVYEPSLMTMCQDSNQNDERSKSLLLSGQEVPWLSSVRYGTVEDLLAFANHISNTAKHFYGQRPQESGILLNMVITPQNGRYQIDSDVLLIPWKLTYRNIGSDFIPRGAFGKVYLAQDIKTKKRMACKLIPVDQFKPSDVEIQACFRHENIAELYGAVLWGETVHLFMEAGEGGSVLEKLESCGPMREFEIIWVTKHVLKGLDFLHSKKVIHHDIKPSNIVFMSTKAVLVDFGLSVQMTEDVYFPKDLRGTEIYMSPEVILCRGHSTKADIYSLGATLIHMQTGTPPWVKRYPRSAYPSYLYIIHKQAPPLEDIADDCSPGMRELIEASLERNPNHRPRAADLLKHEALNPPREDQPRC

Structure (SMILES)	pIC50
N#Cc1cnc2cnc(NCc3cccnc3)cc2c1Nc1ccc(F)c(Cl)c1 [Example 1, 4-(3-chloro-4-fluorophenylamino)-6-(pyridin-3-ylmethylamino)-1,7-naphthyridine-3-carbonitrile]	7.30
N#Cc1cnc2cnc(NCCN3CCOCC3)cc2c1Nc1cccc(Oc2ccccc2)c1 [Example 2, 6-(2-morpholinoethylamino)-4-(3-phenoxyphenylamino)-1,7-naphthyridine-3-carbonitrile]	4.94
N#Cc1cnc2cnc(NCCN3CCOCC3)cc2c1Nc1cccc(Cl)c1 [Example 3, 4-(3-chlorophenylamino)-6-(2-morpholinoethylamino)-1,7-naphthyridine-3-carbonitrile]	5.94
N#Cc1cnc2cnc(NCCN3CCOCC3)cc2c1Nc1ccc(F)cc1 [Example 4, 4-(4-fluorophenylamino)-6-(2-morpholinoethylamino)-1,7-naphthryidine-3-carbonitrile]	4.97
N#Cc1cnc2cnc(NCCN3CCOCC3)cc2c1Nc1ccc(Br)cc1 [Example 5, 4-(4-bromophenylamino)-6-(2-morpholinoethylamino)-1,7-naphthyridine-3-carbonitrile]	< 4.40
N#Cc1cnc2cnc(NCCN3CCOCC3)cc2c1Nc1ccc(Cc2ccccc2)cc1 [Example 7, 4-(4-benzylphenylamino)-6-(2-morpholinoethylamino)-1,7-naphthyridine-3-carbonitrile]	8.10
N#Cc1cnc2cnc(NCc3cccnc3)cc2c1Nc1ccc(F)cc1 [Example 9, 4-(4-fluorophenylamino)-6-(pyridin-3-ylmethylamino)-1,7-naphthyridine-3-carbonitrile]	5.77
N#Cc1cnc2cnc(NCCN3CCOCC3)cc2c1Nc1ccc(Nc2ccccc2)cc1 [Example 10, 6-(2-morpholinoethylamino)-4-(4-(phenylamino)phenylamino)-1,7-naphthyridine-3-carbonitrile]	5.12
N#Cc1cnc2cnc(NCCN3CCOCC3)cc2c1Nc1ccc(Sc2ccccc2)cc1 [Example 11, 6-(2-morpholinoethylamino)-4-(4-(phenylthio)phenylamino)-1,7-naphthyridine-3-carbonitrile]	8.22
N#Cc1cnc2cnc(NCc3cccnc3)cc2c1Nc1cccc(Cl)c1 [Example 12, 4-(3-chlorophenylamino)-6-(pyridin-3-ylmethylamino)-1,7-naphthyridine-3-carbonitrile]	7.19
N#Cc1cnc2cnc(NCCN3CCOCC3)cc2c1Nc1ccc(F)c(F)c1 [Example 13, 4-(3,4-difluorophenylamino)-6-(2-morpholinoethylamino)-1,7-naphthryidine-3-carbonitrile]	5.44
N#Cc1cnc2cnc(NCc3cccnc3)cc2c1Nc1ccc(Cc2ccccc2)cc1 [Example 14, 4-(4-benzylphenylamino)-6-(pyridin-3-ylmethylamino)-1,7-naphthryidine-3-carbonitrile]	7.77
N#Cc1cnc2cnc(NCc3cccnc3)cc2c1Nc1cccc(Oc2ccccc2)c1 [Example 15, 4-(3-phenoxyphenylamino)-6-(pyridin-3-ylmethylamino)-1,7-naphthyridine-3-carbonitrile]	< 4.40
N#Cc1cnc2cnc(NCc3cccnc3)cc2c1Nc1ccc(Cl)cc1 [Example 16, 4-(4-chlorophenylamino)-6-(pyridin-3-ylmethylamino)-1,7-naphthyridine-3-carbonitrile]	< 5.00
N#Cc1cnc2cnc(NCc3cccnc3)cc2c1Nc1ccc(Br)cc1 [Example 17, 4-(4-bromophenylamino)-6-(pyridin-3-ylmethylamino)-1,7-naphthyridine-3-carbonitrile]	< 5.00
N#Cc1cnc2cnc(NCc3cccnc3)cc2c1Nc1ccc(Nc2ccccc2)cc1 [Example 18, 4-(4-(phenylamino)phenylamino)-6-(pyridin-3-ylmethylamino)-1,7-naphthyridine-3-carbonitrile]	< 5.00
N#Cc1cnc2cnc(NCc3cccnc3)cc2c1Nc1ccc(Sc2ccccc2)cc1 [Example 19, 4-(4-(phenylthio)phenylamino)-6-(pyridin-3-ylmethylamino)-1,7-naphthyridine-3-carbonitrile]	8.05
N#Cc1cnc2cnc(NCc3cccnc3)cc2c1Nc1ccc(F)c(F)c1 [Example 20, 4-(3,4-difluorophenylamino)-6-(pyridin-3-ylmethylamino)-1,7-naphthyridine-3-carbonitrile]	6.54
CN(C)CCCNc1cc2c(Nc3ccc(Cc4ccccc4)cc3)c(C#N)cnc2cn1 [Example 21, 4-(4-benzylphenylamino)-6-(3-(dimethylamino)propylamino)-1,7-naphthyridine-3-carbonitrile]	8.02
CN1CCN(CCCNc2cc3c(Nc4ccc(Cc5ccccc5)cc4)c(C#N)cnc3cn2)CC1 [Example 22, 4-(4-benzylphenylamino)-6-(3-(4-methylpiperazin-1-yl)propylamino)-1,7-naphthyridine-3-carbonitrile]	7.10
CN(C)CCNc1cc2c(Nc3ccc(Cc4ccccc4)cc3)c(C#N)cnc2cn1 [Example 23, 4-(4-benzylphenylamino)-6-(2-(dimethylamino)ethylamino)-1,7-naphthyridine-3-carbonitrile]	7.44
N#Cc1cnc2cnc(NCCN3CCOCC3)cc2c1Nc1cccc(F)c1 [Example 24, 4-(3-fluorophenylamino)-6-(2-morpholinoethylamino)-1,7-naphthyridine-3-carbonitrile]	5.95
N#Cc1cnc2cnc(NCCN3CCNCC3)cc2c1Nc1ccc(Cc2ccccc2)cc1 [Example 25, 4-(4-benzylphenylamino)-6-(2-(piperazin-1-yl)ethylamino)-1,7-naphthyridine-3-carbonitrile, hydrochloride salt]	7.42
N#Cc1cnc2cnc(NCCN3CCOCC3)cc2c1Nc1ccc(C(=O)c2ccccc2)cc1 [Example 27, 4-(4-benzoylphenylamino)-6-(2-morpholinoethylamino)-1,7-naphthyridine-3-carbonitrile]	5.34
Cc1cccc(Nc2c(C#N)cnc3cnc(NCc4cccnc4)cc23)c1 [Example 29, 4-(3-methylphenylamino)-6-(pyridin-3-ylmethylamino)-1,7-naphthyridine-3-carbonitrile]	< 4.40
COC(=O)c1ccc(Nc2c(C#N)cnc3cnc(NCc4cccnc4)cc23)cc1 [Example 30, Methyl 4-(3-cyano-6-(pyridin-3-ylmethylamino)-1,7-naphthyridin-4-ylamino)benzoate]	< 4.40
COc1ccc(Nc2c(C#N)cnc3cnc(NCCN4CCOCC4)cc23)cc1 [Example 31, 4-(4-methoxyphenylamino)-6-(2-morpholinoethylamino)-1,7-naphthyridine-3-carbonitrile]	< 4.40
N#Cc1cnc2cnc(NCc3cccnc3)cc2c1Nc1cccc(OC(F)(F)F)c1 [Example 32, 6-(pyridin-3-ylmethylamino)-4-(3-(trifluoromethoxy)phenylamino)-1,7-naphthyridine-3-carbonitrile]	< 4.40
N#Cc1cnc2cnc(NCc3cccnc3)cc2c1Nc1ccc(OC(F)(F)F)cc1 [Example 33, 6-(pyridin-3-ylmethylamino)-4-(4-(trifluoromethoxy)phenylamino)-1,7-naphthyridine-3-carbonitrile]	< 4.40
N#Cc1cnc2cnc(N)cc2c1Nc1ccc(F)c(Cl)c1 [Example 35, 6-amino-4-[(3-chloro-4-fluorophenyl)amino]-1,7-naphthyridine-3-carbonitrile]	5.30
